From US8465783B2, “Production of potassium magnesium citrate and its applications” (Gadot Biochemical Industries Ltd., priority 2008, dated 2013) come the findings set out here.

What all share (format): physicochemical
The nature of data set [1]: Magnesium retention in soy milk on standing (Mg content in upper layer). Conditions: for Mg content: 1 liter, after addition during agitation (initial); for Mg content in upper layer: after retention of two days without agitation. The method, then:
3 g of material obtained in Example 1 were added to 1 liter of Soy milk during agitation.
3 g of material obtained in Example 2 were added to 1 liter of Soy milk during agitation.
Potassium magnesium citrate was prepared according to U.S. Pat. No. 4,985,593. 5.6 g Of the prepared material were added to 1 liter of soy milk and the samples stored refrigerated.
2.2 g of Tri magnesium citrate nona hydrate were added to 1 liter of soy milk during the agitation.
2.2 g of Tri magnesium citrate nona hydrate and 0.2 g of Kappa Carragenan were added to 1 liter of soy milk during the agitation.
2.2 g of Tri magnesium citrate nona hydrate and 2.2 g of tri potassium citrate were added to 1 liter of soy milk during the agitation.

Data set [2] in a line: Long-term magnesium retention in UHT-treated soy milk, stored refrigerated (Mg content in upper level). Here is the method:
120 g of material obtained in Example 1 were added to 40 liters of soy milk, after agitation the mixture passed the well known (in the art) UHT treatment and samples were collected and stored refrigerated.

Data set [3] in a line: Magnesium retention in cow milk on standing (Mg content in upper layer). Here is the method:
3 g of material obtained in Example 1 were added to 1 liter of cow milk during agitation.

`O=C([O-])CC(O)(CC(=O)[O-])C(=O)[O-].O=C([O-])CC(O)(CC(=O)[O-])C(=O)[O-].[K+].[K+].[K+].[K+].[Mg+2]` [Potassium magnesium citrate]: in data set [1] (5.6 g per 1 liter), the “initial concentration of Mg” value was 373 mg/L. Moreover, the “Mg content in the upper level” value in data set [1] (stored refrigerated, after 48 hours of retention) is 372 mg/L.
Turning to `O.O.O.O.O.O.O.O.O.O=C([O-])CC(O)(CC(=O)[O-])C(=O)[O-].O=C([O-])CC(O)(CC(=O)[O-])C(=O)[O-].[Mg+2].[Mg+2].[Mg+2]` [Tri magnesium citrate nona hydrate], in data set [1], the Mg content was 475 mg/L and the “Mg content in upper layer” value is 307 mg/L. Moreover, the “Magnesium sediment during two days” value in data set [1] (two days without agitation) came out at 35 percents.
With Magnesium Potassium Citrate [Example 1], the Mg content in data set [1] worked out at 445 mg/L; in data set [3] (1 liter, after addition during agitation (initial)), 297 mg/L. Also, the entries for the “Mg content in upper layer” value in data set [1] and in data set [3] (after retention of two days without agitation) were 444 mg/L and 289 mg/L, respectively. For the same compound, the “Mg content in the upper level” value in data set [2] (after 1 week) worked out at 471 mg/L; in data set [2] (after 2 weeks), 470 mg/L; in data set [2] (after 3 weeks), 471 mg/L; in data set [2] (after 4 weeks), 470 mg/L; in data set [2] (after 5 weeks), 462 mg/L; in data set [2] (after 6 weeks), 468 mg/L. In addition, the “Mg content in the upper level” value in data set [2] (after 7 weeks) was found to be 470 mg/L; in data set [2] (after 8 weeks), 468 mg/L; in data set [2] (after 9 weeks), 467 mg/L; in data set [2] (after 10 weeks), 465 mg/L; in data set [2] (after 11 weeks), 471 mg/L; in data set [2] (after 12 weeks), 465 mg/L. The “Mg content in the upper level” value in data set [2] (after 13 weeks) stood at 466 mg/L; in data set [2] (initial) it was 468 mg/L.
In the case of Magnesium Potassium Citrate [Example 2], in data set [1], the Mg content was 547 mg/L and the “Mg content in upper layer” value was found to be 545 mg/L.
